Experiments:
[1] = test system: HCV genotype 1b (HCV-1b) replicon cells; experiment: HCV genotype 1b replicon luciferase assay (EC50); format: cell-based, hepatitis C virus genotype 1b (Con1 clone); settings: 3 days, luciferase (Bright-Glo)
Procedure, shortened: (§1)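 EC50 values come from nonlinear fitting of inhibition derived from replicon luciferase signal. Cells (8000/well) were treated 3 days with duplicate 6-point, 5-fold dilutions, starting at 100, 10 or 1 nM, with 0.5% DMSO.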

[2] = Cell Titer-fluor cell activity assay in HCV-1b replicon cells (CC50); format: cell-based
Procedure, shortened: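 CC50 derived by nonlinear fitting of inhibition % from Cell Titer-fluor signal (405/515 nm, 30 min). Cells: genotype 1b Con1 replicon carrying E1202G, T1280I, K1846T, seeded 8000/well with compound for 3 days, 37 °C, 0.5% DMSO; 6 points, 5-fold dilution, top 100, 10 or 1 nM, duplicates.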

[3] = test system: HCV genotype 1a (HCV-1a) replicon cells; experiment: HCV genotype 1a replicon luciferase assay (EC50); format: cell-based, hepatitis C virus genotype 1a (H77 clone); settings: Hepatitis C virus, 72 h, 3 days, luciferase (Bright-Glo)
Procedure, shortened: as §1

For `COC(=O)N[C@H](C(=O)N1CCC[C@H]1c1[nH]c(-c2ccc(-c3ccc(-c4cnc([C@@H]5CCCCN5C(=O)[C@@H](NC(=O)OC)[C@@H](C)OC)[nH]4)cc3)cc2)c2c1CCCO2)C(C)C` [AG_121], the EC50 ([1]; Hepatitis C virus, 72 h) was 0.001 to 0.1 nM, the CC50 at 3 days [2] was > 1 nM and the EC50 [3] was 10 to 100 nM.
In the case of `COC(=O)N[C@H](C(=O)N1CCC[C@H]1c1ncc(-c2ccc(-c3ccc(-c4cnc(C5C6CCC(C6)[C@@H]5C(=O)NCc5cccnc5O)[nH]4)cc3)cc2)[nH]1)[C@@H](C)OC` (stereo partly drawn) [AA_263_B], the EC50 ([1]; Hepatitis C virus, 72 h) is reported as 0.101 to 1 nM, the CC50 at 3 days [2] is reported as > 1 nM and the EC50 [3] is reported as 1 to 10 nM.
For `COC(=O)N[C@H](C(=O)N1CCC[C@H]1c1ncc(-c2ccc(-c3ccc(-c4cnc(C5C6CCC(C6)[C@@H]5C(=O)NCCO)[nH]4)cc3)cc2)[nH]1)[C@@H](C)OC` (stereo partly drawn) [AA_220_B], the EC50 ([1]; Hepatitis C virus, 72 h) was 1 to 10 nM, the CC50 at 3 days [2] was > 1 nM and the EC50 [3] was 10 to 100 nM.
In the case of `COC(=O)N[C@H](C(=O)N1CCC[C@H]1c1ncc(-c2ccc(-c3ccc(-c4cnc(C5C6CCC(C6)[C@@H]5C(=O)N[C@H](C)c5cccnc5)[nH]4)cc3)cc2)[nH]1)[C@@H](C)OC` (single isomer, unassigned) [AA_253_A], the EC50 [1] is reported as 0.101 to 1 nM, the CC50 at 3 days [2] is reported as > 1 nM and the EC50 [3] is reported as 10 to 100 nM.
With `COC(=O)N[C@H](C(=O)N1CCC[C@H]1c1ncc(-c2ccc(-c3ccc(-c4cnc(C5C6CCC(C6)[C@@H]5C(=O)NCCc5ccncc5)[nH]4)cc3)cc2)[nH]1)[C@@H](C)OC` (stereo partly drawn) [AA_266_A] the EC50 ([1]; Hepatitis C virus, 72 h) was 0.101 to 1 nM, the CC50 at 3 days [2] was > 1 nM and the EC50 [3] was 1 to 10 nM.
In the case of `COC(=O)N[C@H](C(=O)N1CCC[C@H]1c1ncc(-c2ccc(-c3ccc(-c4cnc(C5C6CCC(C6)[C@H]5C(=O)NC(C)c5cnccn5)[nH]4)cc3)cc2)[nH]1)[C@@H](C)OC` (stereo partly drawn) [AA_281_B], the EC50 ([1]; Hepatitis C virus, 72 h) is reported as 0.001 to 0.1 nM, the CC50 at 3 days [2] is reported as > 1 nM and the EC50 [3] is reported as 0.101 to 1 nM.
With `COC(=O)N[C@H](C(=O)N1CCC[C@H]1c1ncc(-c2ccc(-c3ccc(-c4[nH]c([C@@H]5CCCN5C(=O)[C@@H](NC(=O)OC)[C@@H](C)OC)c5c4CCCC5)cc3)cc2)[nH]1)C(C)C` [AG_078_A] the EC50 ([1]; Hepatitis C virus, 72 h) was 0.001 to 0.1 nM, the CC50 at 3 days [2] was > 5 nM and the EC50 [3] was 10 to 100 nM.
With `COC(=O)N[C@H](C(=O)N1CCC[C@H]1c1ncc(-c2ccc(-c3ccc(-c4cnc([C@@H]5C6CCC(C6)[C@H]5C(=O)NCc5ccc(C(F)(F)F)nc5)[nH]4)cc3)cc2)[nH]1)C(C)C` (stereo partly drawn) [AA_232_B] the EC50 ([1]; Hepatitis C virus, 72 h) was 0.001 to 0.1 nM, the CC50 at 3 days [2] was > 1 nM and the EC50 [3] was 1 to 10 nM.
In the case of `COC(=O)N[C@H](C(=O)N1CCC[C@H]1c1ncc(-c2ccc(-c3ccc(-c4cnc([C@H]5C6CCC(C6)[C@@H]5C(=O)NCCc5ccncc5)[nH]4)cc3)cc2)[nH]1)C(C)C` (stereo partly drawn) [AA_209_A], the EC50 ([1]; Hepatitis C virus, 72 h) is reported as 0.001 to 0.1 nM, the CC50 at 3 days [2] is reported as > 1 nM and the EC50 [3] is reported as 10 to 100 nM.
For `COC(=O)N[C@H](C(=O)N1CCC[C@H]1c1ncc(-c2ccc(-c3ccc(-c4cnc(C5C6CCC(C6)[C@@H]5C(=O)NCc5cncnc5)[nH]4)cc3)cc2)[nH]1)[C@@H](C)OC` (stereo partly drawn) [AA_249_A], the EC50 ([1]; Hepatitis C virus, 72 h) was 0.001 to 0.1 nM, the CC50 at 3 days [2] was > 1 nM and the EC50 [3] was 0.101 to 1 nM.
In the case of `COC(=O)N[C@H](C(=O)N1CCC[C@H]1c1ncc(-c2ccc(-c3ccc(-c4cnc(C5C6CCC(C6)[C@@H]5C(=O)NCc5cccnc5C(F)(F)F)[nH]4)cc3)cc2)[nH]1)[C@@H](C)OC` (stereo partly drawn) [AA_255_A], the EC50 ([1]; Hepatitis C virus, 72 h) is reported as 0.001 to 0.1 nM, the CC50 at 3 days [2] is reported as > 1 nM and the EC50 [3] is reported as 10 to 100 nM.
In the case of `COC(=O)N[C@H](C(=O)N1CCC[C@H]1c1ncc(-c2ccc(-c3ccc(-c4cnc([C@@H]5C6CCC(C6)[C@H]5C(=O)NCc5ccc(N)cc5)[nH]4)cc3)cc2)[nH]1)C(C)C` (stereo partly drawn) [AA_210_B], the EC50 ([1]; Hepatitis C virus, 72 h) is reported as 0.001 to 0.1 nM, the CC50 at 3 days [2] is reported as > 1 nM and the EC50 [3] is reported as 10 to 100 nM.
In the case of `COC(=O)N[C@H](C(=O)N1CCC[C@H]1c1ncc(-c2ccc(-c3ccc(-c4cnc(C5[C@H]6CC[C@H](C6)[C@H]5C(=O)NCc5cccnc5F)[nH]4)cc3)cc2)[nH]1)C(C)C` (stereo partly drawn) [AA_224_ENDOA2], the EC50 ([1]; Hepatitis C virus, 72 h) is reported as 0.001 to 0.1 nM, the CC50 at 3 days [2] is reported as > 1 nM and the EC50 [3] is reported as 0.101 to 1 nM.
With `COC(=O)N[C@H](C(=O)N1CCC[C@H]1c1ncc(-c2ccc(-c3ccc(-c4cnc([C@H]5C6CCC(C6)[C@@H]5C(=O)NCc5ccc(C(F)(F)F)nc5)[nH]4)cc3)cc2)[nH]1)C(C)C` (stereo partly drawn) [AA_232_A] the EC50 ([1]; Hepatitis C virus, 72 h) was 0.001 to 0.1 nM, the CC50 at 3 days [2] was > 1 nM and the EC50 [3] was 1 to 10 nM.
For `COC(=O)N[C@H](C(=O)N1CCC[C@H]1c1ncc(-c2ccc(-c3ccc(-c4cnc([C@H]5CCCC[C@@H]5C(=O)NCc5cncc(C)c5)[nH]4)cc3)cc2)[nH]1)C(C)C` [AA_184], the EC50 ([1]; Hepatitis C virus, 72 h) was 0.101 to 1 nM, the CC50 at 3 days [2] was > 5 nM and the EC50 [3] was 10 to 100 nM.
With `CCOC(=O)C(NC(=O)[C@H]1C2CCC(C2)[C@@H]1c1ncc(-c2ccc(-c3ccc(-c4cnc([C@@H]5CCCN5C(=O)[C@@H](NC(=O)OC)C(C)C)[nH]4)cc3)cc2)[nH]1)c1cccnc1` (stereo partly drawn) [AA_213] the EC50 ([1]; Hepatitis C virus, 72 h) was 0.001 to 0.1 nM, the CC50 at 3 days [2] was > 1 nM and the EC50 [3] was 1 to 10 nM.
